US20240326697A1, “SOLID FORMS OF SELECTIVE ANDROGEN RECEPTOR MODULATORS” (priority 2007, published 2024)
Several values for one entry are separate records, joined by “and”; a condition that tells them apart may be missing. Equal entries are not always repeated. Marks after values point to notes of the source that are not given here.

Tests used:
Assay type in all cases: physicochemical
[1] = Dynamic vapor sorption (DVS); details: 25° C.
Procedure: Dynamic vapor sorption quantification relates the mass of water absorbed and subsequently desorbed during the crystallization process. In order to define whether batch P1, P2 and P4 are hydrated polymorphs, DVS measurements were conducted (FIG. 9). A sample (13 to 14 mg) was placed on a Pt pan, and the sample was allowed to equilibrate at 25° C./50% r.h. before starting a pre-defined humidity program (1.0 hours 50%, from 50% r.h. to 95% r.h.: 5% r.h./hour, 10 hours at 95% r.h., from 95% r.h. to 0% r.h.: 5% r.h./hour, 10 hours at 0% r.h., from 0% r.h. to 50% r.h.: 5% r.h./hour, 1 hours at 50% r.h.

[2] = Suspension equilibration experiments
Procedure: Suspension equilibration experiments were carried out with 81-128 mg of the compound. The suspensions were stirred with a magnetic stirrer. The samples obtained after filtration were air dried at ambient temperature for a short time only to prevent possible desolvation of labile hydrates or solvates.

[3] = Water solubility of solid forms A and B′ (suspension shaken, filtered, HPLC; residue by Raman); details: 22° C.; for Solid residue: Raman, rough estimate; for solubility: mean of two measurements (±standard deviation)
Procedure: During the following experiments: suspension equilibration, precipitation experiment, recrystallization, relative stability experiments and water solubility experiment, a filtration step was conducted. Centrifugal filter devices: Ultrafree-CL (0.22 la,m), Millipore; Centrifuge type or Eppendorf 5804R were used at a temperature of 22° C. and centrifugation program of 2 min 3000 rpm.
HPLC was used to analyse the purity of S-1. HP 1090M HPLC machine was used with the following conditions: • Column: Symmetry Shield RP18, 3.9×150 mm, 5 μm • Column temperature: 35° C. • Injection volume: 10 μL • Solvent: acetonitrile+water 1:1 v/v • Mobile phase A: 0.1% TFA-water • Mobile phase B: 0.1% TFA-acetonitrile • Flow rate: 1 mL/min. • Detection: UV at 271 nm • Run time: 21 min. • Retention time (S-1): 10.7 min.
Suspensions of the solid forms (25 or 50 mg in 3.5 or 7.0 ml bidistilled water) were shaken (800 rpm) and filtered after 0.5 h, 1.5 h, 4 h and 20 h. After filtration the solid residue was checked by Raman spectroscopy and the concentration in the clear solution was determined by HPLC.

[4] = Measurement of the approximate solubility (solvent added in steps to the solid); details: ethyl acetate/n-heptane 1:2 v/v, 23° C. (B′: solid form transformation into solid form A)
Procedure: To determine the approximate solubility at room temperature, the solvent was added in steps to the solid material. After every addition, the sample was well stirred. The addition of solvent was continued until complete dissolution or until 15 ml of solvent was added.

[5] = Relative stability of polymorphic forms under dry conditions (heating, micronization); details: heating to 110° C. in the presence of D
Procedure: (§1) Thermal analysis was carried out with a Perkin Elmer DSC7 with the following experimental conditions: 3 to 6 mg sample mass, closed gold sample pan, temperature range −50° C. to 120° C., heating rate 20 K/min. The samples were weighed in air or dry N2 atmosphere. Additional thermal analysis was conducted using a TA Instruments Q1000 DSC using hermetic aluminum pans under various conditions.
Thus forms A and B″ can be considered to be practically stable at ambient temperature. […] Micronization of the polymorph A particles under dry conditions also produced ˜25% conversion to B″.

[6] = Relative stability of polymorphic forms under humid conditions (storage, DSC); details: 50° C./75% RH as well as ambient/75% RH, ambient/100% RH, 30° C./75% RH and 50° C./0% RH
Procedure: as §1
Polymorph A stays stable in its A form for at least 7 days under storage conditions of ambient temperature/75% RH (Relative Humidity), ambient temperature/100% RH, 30° C./75% RH and 50° C./0% RH.
In fact, polymorph D in the presence of moisture acts as the seed for the crystallization process and drives the transformation of polymorphs A and B′ into D, similar to its role in seeding the A to D crystallization in dry conditions. […] The amount of polymorph D initially added to the sample is very small that it isn't detectable by the DSC with heating rate of 10° C./min. […] The transformation process is speeded up in FIG. 17G (b) by storing the sample in water at 50° C. […] Further work has shown that the A and B′ convert to D in the presence of moisture at lower temperatures also albeit at slower rates.

[7] = Relative stability of toluene solvate in toluene / solubility in toluene
Procedure: Recrystallization of S-1 from a solvent/antisolvent system that uses toluene as the antisolvent produces the toluene solvate. Toluene solvate has a melting point near 100° C. with the enthalpy of melting 70±5 J/g.

## C[C@](O)(COc1ccc(C#N)cc1)C(=O)Nc1ccc(C#N)c(C(F)(F)F)c1 [Form B′, (S)-N-(4-cyano-3-(trifluoromethyl)phenyl)-3-(4-cyanophenoxy)-2-hydroxy-2-methylpropanamide]
[1]; listed as solid form B′
  maximum water content at 94% r.h.: approx. 2.4%
[2]; ethyl acetate + n-heptane 1:2 v/v 81/1.7 mg/ml, stirred 2 h/23° C.
  Form produced: transformed into solid form A
[2]; ethyl acetate + n-pentane 1:2 v/v 101/1.0 mg/ml, stirred 22 h/23° C.
  Form produced: transformed into solid form A
[3]; stated as embodiment
  solubility in water: 20 to 30 µg/mL and 23 to 27 µg/mL
[3]; water, 0.5 h
  Solid residue: B′
[3]; water, 1.5 h
  Solid residue: B′
[3]; water, 4.0 h
  Solid residue: B′
[3]; water, 20 h
  Solid residue: B′
[3]; water, 20 h suspension equilibration
  pH of the solution: d) pH of the solution: 8.7
[3]; water, suspension equilibration time 0.5 h
  solubility: 27.4 ± 0.9 mg/1000 ml
[3]; water, suspension equilibration time 1.5 h
  solubility: 27.3 ± 0.8 mg/1000 ml
[3]; water, suspension equilibration time 1.5 h, listed as B′
  solubility: 27.3±0.8 mg/1000 ml
[3]; water, suspension equilibration time 4.0 h
  solubility: 25.6 ± 0.1 mg/1000 ml
[3]; water, suspension equilibration time 20 h
  solubility: 26.7 ± 0.3 ^c) mg/1000 ml
[4]
  solubility: >9 solid form mg/ml

## C[C@](O)(COc1ccc(C#N)cc1)C(=O)Nc1ccc(C#N)c(C(F)(F)F)c1 [Form B″, (S)-N-(4-cyano-3-(trifluoromethyl)phenyl)-3-(4-cyanophenoxy)-2-hydroxy-2-methylpropanamide]
[5]
  solid form change on heating: rearrange into D

## C[C@](O)(COc1ccc(C#N)cc1)C(=O)Nc1ccc(C#N)c(C(F)(F)F)c1 [Form D, (S)-N-(4-cyano-3-(trifluoromethyl)phenyl)-3-(4-cyanophenoxy)-2-hydroxy-2-methylpropanamide]
[6]
  solid form stability on storage: stable
[6]; listed as Polymorph D
  solid form stability on storage: remains stable
[7]; sonication of the suspension for 10 minutes
  transformation in toluene suspension: partial transformation to the toluene solvate
[7]; suspension (50 mg/mL) in toluene for 4 days, both at ambient temperature and 50° C.
  transformation in toluene suspension: no noticeable transformation from form D to the toluene solvate

## C[C@](O)(COc1ccc(C#N)cc1)C(=O)Nc1ccc(C#N)c(C(F)(F)F)c1 [Form S-1, (S)-N-(4-cyano-3-(trifluoromethyl)phenyl)-3-(4-cyanophenoxy)-2-hydroxy-2-methylpropanamide]
[7]; toluene, organic solvent or mixture
  solubility: < 2000 µg/mL

## C[C@](O)(COc1ccc(C#N)cc1)C(=O)Nc1ccc(C#N)c(C(F)(F)F)c1 [Form S-1-P1, (S)-N-(4-cyano-3-(trifluoromethyl)phenyl)-3-(4-cyanophenoxy)-2-hydroxy-2-methylpropanamide]
[1]
  maximum water content at 93% r.h.: 1.5%
  water content at 50% r.h.: water content at 50% r.h.: 0.4%

## C[C@](O)(COc1ccc(C#N)cc1)C(=O)Nc1ccc(C#N)c(C(F)(F)F)c1 [Form S-1-P2, (S)-N-(4-cyano-3-(trifluoromethyl)phenyl)-3-(4-cyanophenoxy)-2-hydroxy-2-methylpropanamide]
[1]
  maximum water content at 95% r.h.: 0.6%
  water content at 50% r.h.: water content at 50% r.h.: 0.3%

## C[C@](O)(COc1ccc(C#N)cc1)C(=O)Nc1ccc(C#N)c(C(F)(F)F)c1 [Form S-1-P4, (S)-N-(4-cyano-3-(trifluoromethyl)phenyl)-3-(4-cyanophenoxy)-2-hydroxy-2-methylpropanamide]
[1]
  maximum water content at 94% r.h.: r.h.: ~2.4%
  water content at 50% r.h.: water content at 50% r.h.: ~0.8%
